Laboratory results from patent US20090004185A1, “AMINO-SUBSTITUTED QUINAZOLINE DERIVATIVES AS INHIBITORS OF BETA-CATENIN/TCF-4 PATHWAY AND CANCER TREATMENT AGENTS” (WYETH, priority 2007, published 2009).

Tests used:
β-catenin/Tcf-4 = assay: cells; format: cell-based; details: 24 hours of incubation with compound, ratio Firefly/Renilla luciferase
In short: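 SW480-derived lines with integrated reporters (Tcf-4-driven firefly luciferase; SV40 firefly as specificity control; SV40 Renilla for cell number/toxicity), treated 24 hours with titrated compounds, final 0.316% DMSO. Dual-luciferase read-out; firefly/Renilla ratio as % of control, duplicate plates, IC50 (nM) from curve fit.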

SV40-Luc = SV40-Luc control luciferase reporter assay, SV 5A8 cell line (SV40-Luc and SV40-R-Luc), control for non-specific inhibitors; format: cell-based, human; details: SV 5A8 cells derived from SW480, 24 hours of incubation with compound, ratio Firefly/Renilla luciferase
In short: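 SW480-derived lines with integrated reporters: SV 5A8 (SV40-Luc + SV40-R-Luc), Tcf 33.13 and Tcf 22C11 (Tcf-4-Luc + SV40-R-Luc). Compounds titrated onto cells for 24 h, final DMSO 0.316%. Firefly and Renilla luminescence read by dual-luciferase; firefly/Renilla ratio as % of control fitted for IC50.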

[1] = Homo sapiens, SW480, 24 h, Tcf 33.13 cells derived from SW480
[2] = Homo sapiens, Tcf22C11, 24 h, Tcf 22C11 cells derived from SW480
[3] = Tcf 22C11 cells derived from SW480
[4] = Tcf 33.13 cells derived from SW480

Compound: Cc1ccc2nc(N3CCC(N4CCCC4)CC3)nc(NCc3ccc(NC(=O)C4CCN(Cc5ccccc5)CC4)cc3)c2c1 [Example 83, 1-benzyl-N-[4-({[6-methyl-2-(4-pyrrolidin-1-ylpiperidin-1-yl)quinazolin-4-yl]amino}methyl)phenyl]piperidine-4-carboxamide]
- IC50 (β-catenin/Tcf-4; [1]): 425 nM
- IC50 (β-catenin/Tcf-4; [2]): 511 nM
- IC50 (SV40-Luc; Homo sapiens, SV5A8, 24 h): > 4050 nM

Compound: Cc1ccc2c(N[C@H](C)c3ccc(NC(=O)c4ccc(F)cc4)cc3)nc(N(C)C)nc2c1 [Example 272, (R)—N-(4-(1-(2-(dimethylamino)-7-methylquinazolin-4-ylamino)ethyl)phenyl)-4-fluorobenzamide]
- IC50 (β-catenin/Tcf-4; [1]): 986 nM
- IC50 (β-catenin/Tcf-4; [2]): 894 nM
- IC50 (SV40-Luc; Homo sapiens, SV5A8, 24 h): > 5420 nM

Compound: CNc1nc(NCc2ccc(NC(=O)c3cc(F)c(Cl)nc3Cl)cc2)c2ccccc2n1 [Example 8, 2,6-dichloro-5-fluoro-N-[4-({[2-(methylamino)quinazolin-4-yl]amino}methyl)phenyl]nicotinamide]
- IC50 (β-catenin/Tcf-4; [1]): 1530 nM
- IC50 (β-catenin/Tcf-4; [2]): 1770 nM
- IC50 (SV40-Luc; Homo sapiens, SV5A8, 24 h): > 5300 nM

Compound: C=Cc1ccc2nc(N(C)C)nc(NCc3ccc(NC(=O)c4ccc(Cl)nc4)cc3)c2c1 [Example 73, 6-chloro-N-[4-({[2-(dimethylamino)-6-vinylquinazolin-4-yl]amino}methyl)phenyl]nicotinamide]
- IC50 (β-catenin/Tcf-4; [1]): 194 nM
- IC50 (β-catenin/Tcf-4; [2]): 223 nM
- IC50 (SV40-Luc; Homo sapiens, SV5A8, 24 h): > 681 nM

Compound: Cc1ccc2nc(N(C)C)nc(NCc3ccc(NC(=O)c4ccc(F)cc4)cc3)c2c1 [Example 40, N-[4-({[2-(dimethylamino)-6-methylquinazolin-4-yl]amino}methyl)phenyl]-4-fluorobenzamide]
- IC50 (β-catenin/Tcf-4; [3]): 1620 nM
- IC50 (β-catenin/Tcf-4; [4]): 2050 nM
- IC50 (SV40-Luc): > 11600 nM

Compound: Cc1ccc2c(NCc3ccc(NC(=O)C4CCN(Cc5ccc(F)cc5F)CC4)cc3)nc(N(C)C)nc2c1 [Example 254, 1-(2,4-difluorobenzyl)-N-[4-({[2-(dimethylamino)-7-methylquinazolin-4-yl]amino}methyl)phenyl]piperidine-4-carboxamide]
- IC50 (β-catenin/Tcf-4; [1]): 85 nM
- IC50 (β-catenin/Tcf-4; [2]): 168 nM
- IC50 (SV40-Luc; Homo sapiens, SV5A8, 24 h): > 4590 nM

Compound: Cc1ccc2nc(N3CCCC3)nc(NCc3ccc(NC(=O)C4CCN(Cc5ccccc5)CC4)cc3)c2c1 [Example 77, 1-benzyl-N-(4-{[(6-methyl-2-pyrrolidin-1-ylquinazolin-4-yl)amino]methyl}phenyl)piperidine-4-carboxamide]
- IC50 (β-catenin/Tcf-4; [1]): 847 nM
- IC50 (β-catenin/Tcf-4; [2]): 2260 nM
- IC50 (SV40-Luc; Homo sapiens, SV5A8, 24 h): > 8230 nM

Compound: CNc1nc(NCc2ccc(NC(=O)c3ccc(Cl)nc3)cc2)c2cc(OC)ccc2n1 [Example 31, 6-chloro-N-[4-({[6-methoxy-2-(methylamino)quinazolin-4-yl]amino}methyl)phenyl]nicotinamide]
- IC50 (β-catenin/Tcf-4; [1]): 4120 nM
- IC50 (β-catenin/Tcf-4; [2]): 5950 nM
- IC50 (SV40-Luc; Homo sapiens, SV5A8, 24 h): > 22300 nM

Compound: CN(C)c1nc(NCc2ccc(NC(=O)c3ccc(F)cc3)cc2)c2ccccc2n1 [Example 113, N-[4-({[2-(dimethylamino)quinazolin-4-yl]amino}methyl)phenyl]-4-fluorobenzamide]
- IC50 (β-catenin/Tcf-4; [1]): 766 nM
- IC50 (β-catenin/Tcf-4; [2]): 1490 nM
- IC50 (SV40-Luc; Homo sapiens, SV5A8, 24 h): > 3010 nM

Compound: O=C(Nc1ccc(CNc2nc(N3CCCC3)nc3ccc(C(F)(F)F)cc23)cc1)c1ccc(Cl)cc1 [Example 163]
- IC50 (β-catenin/Tcf-4; [3]): 6990 nM
- IC50 (β-catenin/Tcf-4; [4]): 6550 nM
- IC50 (SV40-Luc): > 9510 nM

Compound: Cc1ccc2c(NCc3ccc(NC(=O)C4CCN(Cc5ccccc5)CC4)cc3)nc(N3CCNC(CCO)C3)nc2c1 (stereo not drawn) [Example 138, 1-benzyl-N-{4-[({2-[3-(2-hydroxyethyl)piperazin-1-yl]-7-methylquinazolin-4-yl}amino)methyl]phenyl}piperidine-4-carboxamide]
- IC50 (β-catenin/Tcf-4; [1]): 2120 nM
- IC50 (β-catenin/Tcf-4; [2]): 2280 nM
- IC50 (SV40-Luc; Homo sapiens, SV5A8, 24 h): > 8420 nM

Compound: Cc1ccc2c(NCc3ccc(NC(=O)c4ccc(F)cc4)cc3)nc(N3CCC[C@H]3CN3CCCC3)nc2c1 [Example 228, 4-fluoro-N-{4-[({7-methyl-2-[(2S)-2-(pyrrolidin-1-ylmethyl)pyrrolidin-1-yl]quinazolin-4-yl}amino)methyl]phenyl}benzamide]
- IC50 (β-catenin/Tcf-4; [1]): 2210 nM
- IC50 (β-catenin/Tcf-4; [2]): 1900 nM
- IC50 (SV40-Luc; Homo sapiens, SV5A8, 24 h): > 4640 nM

Compound: O=C(Nc1ccc(CNc2nc(NC3CCCCC3)nc3ccccc23)cc1)c1ccc(F)cc1 [Example 125, N-[4-({[2-(cyclohexylamino)quinazolin-4-yl]amino}methyl)phenyl]-4-fluorobenzamide]
- IC50 (β-catenin/Tcf-4; [1]): 364 nM
- IC50 (β-catenin/Tcf-4; [2]): 1580 nM
- IC50 (SV40-Luc; Homo sapiens, SV5A8, 24 h): > 1330 nM

Compound: Cc1ccc2c(N[C@@H](C)c3ccc(NC(=O)C4CCN(Cc5ccc(F)c(F)c5)CC4)cc3)nc(N(C)C)nc2c1 [Example 268, 1-(3,4-difluorobenzyl)-N-[4-((1S)-1-{[2-(dimethylamino)-7-methylquinazolin-4-yl]amino}ethyl)phenyl]piperidine-4-carboxamide]
- IC50 (β-catenin/Tcf-4; [1]): 203 nM
- IC50 (β-catenin/Tcf-4; [2]): 215 nM
- IC50 (SV40-Luc; Homo sapiens, SV5A8, 24 h): > 7870 nM

Compound: CNc1nc(NCc2ccc(NC(=O)C3CCN(Cc4ccccc4)CC3)cc2)c2ccccc2n1 [Example 147, 1-benzyl-N-[4-({[2-(methylamino)quinazolin-4-yl]amino}methyl)phenyl]piperidine-4-carboxamide]
- IC50 (β-catenin/Tcf-4; [1]): 1250 nM
- IC50 (β-catenin/Tcf-4; [2]): 1570 nM
- IC50 (SV40-Luc; Homo sapiens, SV5A8, 24 h): > 5200 nM

Compound: Cc1ccc2c(NCc3ccc(NC(=O)C4CCN(Cc5ccccc5)CC4)cc3)nc(N3CCN(c4ncccn4)CC3)nc2c1 [Example 136, 1-benzyl-N-[4-({[7-methyl-2-(4-pyrimidin-2-ylpiperazin-1-yl)quinazolin-4-yl]amino}methyl)phenyl]piperidine-4-carboxamide]
- IC50 (β-catenin/Tcf-4; [1]): 365 nM
- IC50 (β-catenin/Tcf-4; [2]): 494 nM
- IC50 (SV40-Luc; Homo sapiens, SV5A8, 24 h): > 15900 nM

Compound: Cc1ccc2nc(N3CCNCC3)nc(NCc3ccc(NC(=O)c4ccc(F)cc4)cc3)c2c1 [Example 45]
- IC50 (β-catenin/Tcf-4; [3]): 1800 nM
- IC50 (β-catenin/Tcf-4; [4]): 1480 nM
- IC50 (SV40-Luc): > 10600 nM

Compound: CNc1nc(NCc2ccc(NC(=O)C3CCN(Cc4ccccc4)CC3)cc2)c2cc(C)ccc2n1 [Example 149, 1-benzyl-N-[4-({[6-methyl-2-(methylamino)quinazolin-4-yl]amino}methyl)phenyl]piperidine-4-carboxamide]
- IC50 (β-catenin/Tcf-4; [1]): 726 nM
- IC50 (β-catenin/Tcf-4; [2]): 606 nM
- IC50 (SV40-Luc; Homo sapiens, SV5A8, 24 h): > 2530 nM

Compound: Cc1ccc2c(NCc3ccc(NC(=O)C4CCN(Cc5ncc[nH]5)CC4)cc3)nc(N(C)C)nc2c1 [Example 248, N-[4-({[2-(dimethylamino)-7-methylquinazolin-4-yl]amino}methyl)phenyl]-1-(1H-imidazol-2-ylmethyl)piperidine-4-carboxamide]
- IC50 (β-catenin/Tcf-4; [1]): > 20100 nM
- IC50 (β-catenin/Tcf-4; [2]): > 20100 nM
- IC50 (SV40-Luc; Homo sapiens, SV5A8, 24 h): > 20100 nM

Compound: CN(C)c1ccc(-c2ccc3nc(N(C)C)nc(NCc4ccc(NC(=O)c5ccc(F)cc5)cc4)c3c2)nc1 [Example 169]
- IC50 (β-catenin/Tcf-4; [3]): 229 nM
- IC50 (β-catenin/Tcf-4; [4]): 453 nM
- IC50 (SV40-Luc): > 2330 nM

Compound: Cc1ccc2c(NCc3ccc(NC(=O)C4CCN(C5CCCCC5)CC4)cc3)nc(N(C)C)nc2c1 [Example 245, 1-cyclohexyl-N-[4-({[2-(dimethylamino)-7-methylquinazolin-4-yl]amino}methyl)phenyl]piperidine-4-carboxamide]
- IC50 (β-catenin/Tcf-4; [1]): 809 nM
- IC50 (β-catenin/Tcf-4; [2]): 754 nM
- IC50 (SV40-Luc; Homo sapiens, SV5A8, 24 h): > 9990 nM

Compound: O=C(Nc1ccc(CNc2nc(N3CCC3)nc3ccc(C(F)(F)F)cc23)cc1)c1ccc(Cl)cc1 [Example 162, N-[4-({[2-azetidin-1-yl-6-(trifluoromethyl)quinazolin-4-yl]amino}methyl)phenyl]-4-chlorobenzamide]
- IC50 (β-catenin/Tcf-4; [1]): 2230 nM
- IC50 (β-catenin/Tcf-4; [2]): 3580 nM
- IC50 (SV40-Luc; Homo sapiens, SV5A8, 24 h): > 9770 nM

Compound: C=Cc1ccc2c(NCc3ccc(NC(=O)c4ccc(Cl)nc4)cc3)nc(N(C)C)nc2c1 [Example 111, 6-chloro-N-[4-({[2-(dimethylamino)-7-vinylquinazolin-4-yl]amino}methyl)phenyl]nicotinamide]
- IC50 (β-catenin/Tcf-4; [1]): 181 nM
- IC50 (β-catenin/Tcf-4; [2]): 238 nM
- IC50 (SV40-Luc; Homo sapiens, SV5A8, 24 h): > 2520 nM

Compound: O=C(Nc1ccc(CNc2nc(N3CCOCC3)nc3ccccc23)cc1)c1ccc(F)cc1 [Example 117, 4-fluoro-N-(4-{[(2-morpholin-4-ylquinazolin-4-yl)amino]methyl}phenyl)benzamide]
- IC50 (β-catenin/Tcf-4; [1]): 4480 nM
- IC50 (β-catenin/Tcf-4; [2]): 7170 nM
- IC50 (SV40-Luc; Homo sapiens, SV5A8, 24 h): > 21900 nM

Compound: CN(C)c1nc(NCc2ccc(NC(=O)c3ccc(F)cc3)cc2)c2cc(I)ccc2n1 [Example 68, N-[4-({[2-(dimethylamino)-6-iodoquinazolin-4-yl]amino}methyl)phenyl]-4-fluorobenzamide]
- IC50 (β-catenin/Tcf-4; [1]): 400 nM
- IC50 (β-catenin/Tcf-4; [2]): 530 nM
- IC50 (SV40-Luc; Homo sapiens, SV5A8, 24 h): > 4620 nM

Compound: Cc1ccc2nc(N3CCN[C@@H](C)C3)nc(NCc3ccc(NC(=O)c4ccc(F)cc4)cc3)c2c1 [Example 51, 4-fluoro-N-{4-[({6-methyl-2-[(3S)-3-methylpiperazin-1-yl]quinazolin-4-yl}amino)methyl]phenyl}benzamide]
- IC50 (β-catenin/Tcf-4; [1]): 987 nM
- IC50 (β-catenin/Tcf-4; [2]): 1070 nM
- IC50 (SV40-Luc; Homo sapiens, SV5A8, 24 h): > 5160 nM

Compound: CNc1nc(NCc2ccc(NC(=O)c3ccc(Cl)cc3)cc2)c2cc(-c3ccco3)cc(C)c2n1 [Example 67, 4-chloro-N-[4-({[6-(2-furyl)-8-methyl-2-(methylamino)quinazolin-4-yl]amino}methyl)phenyl]benzamide]
- IC50 (β-catenin/Tcf-4; [1]): 1450 nM
- IC50 (β-catenin/Tcf-4; [2]): 1210 nM
- IC50 (SV40-Luc; Homo sapiens, SV5A8, 24 h): > 10000 nM

Compound: Cc1ccc2nc(N3CCN(c4ccccn4)CC3)nc(NCc3ccc(NC(=O)c4ccc(F)cc4)cc3)c2c1 [Example 55, 4-fluoro-N-[4-({[6-methyl-2-(4-pyridin-2-ylpiperazin-1-yl)quinazolin-4-yl]amino}methyl)phenyl]benzamide]
- IC50 (β-catenin/Tcf-4; [1]): 3260 nM
- IC50 (β-catenin/Tcf-4; [2]): 8650 nM
- IC50 (SV40-Luc; Homo sapiens, SV5A8, 24 h): > 18300 nM
